From ChEMBL document CHEMBL1201862, “PubChem BioAssay data set” (2004)
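A five-concentration, 48-hour dose response in 96-well plates underlies each endpoint, interpolated linearly between surrounding concentrations. The concentration for 50% growth inhibition is given as GI50.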 Active and inactive are the calls of the source. No stated cut-off is given here; in the data, active = GI50 up to about 1.1 µM and inactive = higher.

Tests used:
Experiment in all cases: inhibition of tumour cell growth, NCI panel, 48 h
[1] = system: A498
[2] = system: COLO 205
[3] = system: EKVX
[4] = system: HCT-15
[5] = system: HT-29
[6] = system: IGROV-1
[7] = system: NCI-H460
[8] = system: OVCAR-4
[9] = system: RPMI-8226
[10] = system: RXF 393
[11] = system: SK-MEL-2
[12] = system: SK-OV-3
[13] = system: SN12C
[14] = system: TK-10
[15] = system: U-251
[16] = system: MCF7
[17] = system: NCI-H226
[18] = system: OVCAR-5
[19] = system: T47D
[20] = system: MDA-N

SMILES | GI50 [1] | GI50 [2] | GI50 [3] | GI50 [4] [µM] | GI50 [5] | GI50 [6] | GI50 [7] | GI50 [8] | GI50 [9] | GI50 [10] | GI50 [11] | GI50 [12] | GI50 [13] | GI50 [14] | GI50 [15] | GI50 [16] | GI50 [17] | GI50 [18] | GI50 [19] | GI50 [20]
O/N=C1/C(=C/c2ccc(F)cc2)CCCC1C(NO)c1ccc(F)cc1 (centres undefined) | > 100 µM (inactive) | 33.5 µM (inactive) | 38.9 µM (inactive) | 38 | 21.6 µM (inactive) | 89.1 µM (inactive) | > 100 µM (inactive) | 31.5 µM (inactive) | 20.8 µM (inactive) | 21.3 µM (inactive) | 34.6 µM (inactive) | > 100 µM (inactive) | 20.8 µM (inactive) | 71.4 µM (inactive) | 46.8 µM (inactive) |  |  |  |  | 
Cc1ccc(C(=O)CC(Cl)=C(Cl)Cl)cc1 | > 100 µM (inactive) | > 100 µM (inactive) |  | 67.1 | > 100 µM (inactive) | > 100 µM (inactive) | > 100 µM (inactive) | 63.2 µM (inactive) | 29.2 µM (inactive) | 78.5 µM (inactive) | > 100 µM (inactive) | > 100 µM (inactive) |  | > 100 µM (inactive) | > 100 µM (inactive) | > 100 µM (inactive) | 85.5 µM (inactive) | > 100 µM (inactive) | 50.6 µM (inactive) | 
O=P1(Oc2ccc(Cl)cc2Cl)Oc2ccc3ccccc3c2-c2c(ccc3ccccc23)O1 | 24.8 µM (inactive) | 46.5 µM (inactive) | 25.4 µM (inactive) | 26.5 | 42.1 µM (inactive) | 26.9 µM (inactive) | 32.4 µM (inactive) | 27.9 µM (inactive) | 18.2 µM (inactive) | 16 µM (inactive) | 18.7 µM (inactive) | 59.7 µM (inactive) | 30.8 µM (inactive) |  | 21.1 µM (inactive) | 33.7 µM (inactive) | 23.3 µM (inactive) | 59.7 µM (inactive) |  | 
O=C1CCCn2c3ccccc3c3ccnc1c32 | 14.9 µM (inactive) | 41.8 µM (inactive) | 12.2 µM (inactive) | 41.7 | 23.9 µM (inactive) | 34.2 µM (inactive) | 34 µM (inactive) | 49 µM (inactive) | 23.6 µM (inactive) | 24.8 µM (inactive) | 47.1 µM (inactive) | 44.7 µM (inactive) | 40.8 µM (inactive) |  | 40.8 µM (inactive) | 36.1 µM (inactive) | 19.4 µM (inactive) | 35.2 µM (inactive) |  | 
O=[N+]([O-])c1cccc(C2=NOC3CCCC23)c1 (centres undefined) | > 100 µM (inactive) | > 100 µM (inactive) | > 100 µM (inactive) | > 100 | > 100 µM (inactive) | > 100 µM (inactive) | > 100 µM (inactive) | > 100 µM (inactive) | > 100 µM (inactive) |  | > 100 µM (inactive) | > 100 µM (inactive) | > 100 µM (inactive) | > 100 µM (inactive) | > 100 µM (inactive) |  | > 100 µM (inactive) | > 100 µM (inactive) |  | 
Cc1cc(-c2ccc(C(=O)O)[nH]2)on1 | > 100 µM (inactive) | 22.3 µM (inactive) | 42.1 µM (inactive) | 20.2 | 27.1 µM (inactive) | 50.4 µM (inactive) | 40.6 µM (inactive) | > 100 µM (inactive) | 62.7 µM (inactive) | 74.8 µM (inactive) | 88.5 µM (inactive) | 32.6 µM (inactive) |  | > 100 µM (inactive) | 65.6 µM (inactive) | 39 µM (inactive) |  | 74.1 µM (inactive) |  | 4.91 µM (inactive)
Nc1cc2c(cc1[N+](=O)[O-])[nH]c1c(-c3ccccc3)nccc12 | 30.5 µM (inactive) | 20.7 µM (inactive) | 21.7 µM (inactive) | 12 | 14.5 µM (inactive) | 8.65 µM (inactive) | 15.8 µM (inactive) | 12.8 µM (inactive) | 8.24 µM (inactive) | 19.9 µM (inactive) | 20.2 µM (inactive) | 10.9 µM (inactive) | 22.3 µM (inactive) |  | 18.8 µM (inactive) | 26 µM (inactive) | 17 µM (inactive) | 27.1 µM (inactive) |  | 
Cc1cccc(/N=C2\NC(=O)C(CC(=O)Nc3ccc(C)cc3C)S2)c1 (centres undefined) | > 100 µM (inactive) |  | 47.1 µM (inactive) | > 100 | > 100 µM (inactive) | > 100 µM (inactive) | > 100 µM (inactive) | 48.5 µM (inactive) | 55.3 µM (inactive) | > 100 µM (inactive) | > 100 µM (inactive) |  | > 100 µM (inactive) | > 100 µM (inactive) | > 100 µM (inactive) |  | 84.3 µM (inactive) | 88.1 µM (inactive) |  | 
COC(=O)C1=C(C)N(NC(=O)c2ccccc2)C2(O)CCCC(=O)C12C (centres undefined) | > 100 µM (inactive) | > 100 µM (inactive) |  | > 100 | > 100 µM (inactive) | > 100 µM (inactive) |  | > 100 µM (inactive) | > 100 µM (inactive) | > 100 µM (inactive) | > 100 µM (inactive) | > 100 µM (inactive) | > 100 µM (inactive) | > 100 µM (inactive) | > 100 µM (inactive) |  | 4.37 µM (inactive) | > 100 µM (inactive) |  | 
CC(C)c1ccc(O)c(=O)cc1 [GAMMA-THUJAPLICIN] | 19.6 µM (inactive) | 3.74 µM (inactive) | 10.1 µM (inactive) | 4.59 | 4.73 µM (inactive) | 10.4 µM (inactive) | 5.28 µM (inactive) | 7.11 µM (inactive) | 5.13 µM (inactive) | 22.2 µM (inactive) | 5 µM (inactive) | 42.8 µM (inactive) | 8.38 µM (inactive) | 16.1 µM (inactive) | 7.29 µM (inactive) |  | 3.99 µM (inactive) | 14.3 µM (inactive) |  | 
CCOC(=O)/C(=C/c1ccccn1)C(=O)c1ccccc1 | 18.9 µM (inactive) | 14.2 µM (inactive) | 19.1 µM (inactive) | 13.2 | 13.9 µM (inactive) | 16.3 µM (inactive) | 23 µM (inactive) | 16.1 µM (inactive) | 3.42 µM (inactive) | 11.2 µM (inactive) | 13.9 µM (inactive) | 17.9 µM (inactive) | 13.7 µM (inactive) | 17.5 µM (inactive) | 14.3 µM (inactive) |  | 15.9 µM (inactive) | 19.1 µM (inactive) |  | 
C/C=C/CP(=O)(c1ccccc1)c1ccccc1 | > 100 µM (inactive) | > 100 µM (inactive) | > 100 µM (inactive) | > 100 | > 100 µM (inactive) | > 100 µM (inactive) | > 100 µM (inactive) | > 100 µM (inactive) | > 100 µM (inactive) | > 100 µM (inactive) | > 100 µM (inactive) | > 100 µM (inactive) | > 100 µM (inactive) | > 100 µM (inactive) | > 100 µM (inactive) |  | > 100 µM (inactive) | > 100 µM (inactive) |  | 
COc1ccc2[nH]c3c(C)c4cc[n+](C)cc4c(C)c3c2c1 |  |  | 1.16 µM (inactive) |  | 4.83 µM (inactive) | 2.19 µM (inactive) | 1.64 µM (inactive) | 3.37 µM (inactive) |  | 1.32 µM (inactive) | 3.85 µM (inactive) | 6.78 µM (inactive) | 0.116 µM (active) |  | 0.191 µM (active) | 2.39 µM (inactive) | 0.301 µM (active) | 9.51 µM (inactive) |  | 
CC12CCC(Br)C(C)(C)C1CC=C1C(=O)OCC1O2 (centres undefined) | 12 µM (inactive) | 18.2 µM (inactive) | 16.5 µM (inactive) | 12.1 | 19 µM (inactive) | 3.72 µM (inactive) | 14.6 µM (inactive) | 16 µM (inactive) | 2.73 µM (inactive) | 11.1 µM (inactive) | 13.6 µM (inactive) | 9.06 µM (inactive) | 18.5 µM (inactive) | 14 µM (inactive) | 9.77 µM (inactive) | 6.07 µM (inactive) | 10.1 µM (inactive) | 18.7 µM (inactive) | 15.4 µM (inactive) | 
CC1=NOC(C)(O)/C1=N/O (centres undefined) | > 100 µM (inactive) | > 100 µM (inactive) | > 100 µM (inactive) | > 100 | > 100 µM (inactive) | > 100 µM (inactive) | > 100 µM (inactive) | > 100 µM (inactive) | > 100 µM (inactive) | > 100 µM (inactive) | > 100 µM (inactive) | > 100 µM (inactive) | > 100 µM (inactive) | > 100 µM (inactive) | > 100 µM (inactive) | > 100 µM (inactive) | > 100 µM (inactive) | > 100 µM (inactive) | > 100 µM (inactive) | 
COc1cccc2c1C(=O)c1c(O)c3c(c(O)c1C2=O)C[C@@](O)(C(=O)CO)CC3OC1CC(NCCCCC(OC(C)=O)OC(C)=O)C(O)C(C)O1 (some centres undefined) | 0.00365 µM (active) |  |  | 0.00246 | 0.00312 µM (active) | 0.0046 µM (active) | 0.00115 µM (active) | 0.00157 µM (active) | 0.00261 µM (active) | 0.00193 µM (active) | 0.00212 µM (active) | 0.003 µM (active) | 0.00348 µM (active) | 0.00322 µM (active) | 0.00173 µM (active) |  | 0.00227 µM (active) | 0.0047 µM (active) |  | 
CC1=C2C(O)C(C(C)CO)C(O)CC2(C)C(O)CC1 (centres undefined) | > 100 µM (inactive) | > 100 µM (inactive) | > 100 µM (inactive) | > 100 | > 100 µM (inactive) | > 100 µM (inactive) | > 100 µM (inactive) | > 100 µM (inactive) | > 100 µM (inactive) | > 100 µM (inactive) |  | > 100 µM (inactive) | > 100 µM (inactive) | > 100 µM (inactive) | > 100 µM (inactive) |  | > 100 µM (inactive) | > 100 µM (inactive) |  | 
